Measured values from ChEMBL document CHEMBL1135345, “Design and characterization of non-phosphopeptide inhibitors for Src family SH2 domains” (Bioorg Med Chem Lett, 2002).
Where a SMILES comes first, the peptide text is derived from it. [ ]: non-standard residue; d: D form. The star is where a group is joined. pY = N[C@@H](Cc1ccc(OP(=O)(O)O)cc1)C(=O)O; Dopa = N[C@@H](Cc1ccc(O)c(O)c1)C(=O)O; Caffeoyl = O=C(/C=C/c1ccc(O)c(O)c1)*; X1 = O=C(Cc1cc(=O)oc2cc(O)ccc12)*

Tests used:
[1] = biological target: Proto-oncogene tyrosine-protein kinase Src (Homo sapiens, UniProt P12931); assay: Affinity for GST- Src-SH2 domain in ELISA
Proto-oncogene tyrosine-protein kinase Src, sequence (P12931 2-536 limits assumed): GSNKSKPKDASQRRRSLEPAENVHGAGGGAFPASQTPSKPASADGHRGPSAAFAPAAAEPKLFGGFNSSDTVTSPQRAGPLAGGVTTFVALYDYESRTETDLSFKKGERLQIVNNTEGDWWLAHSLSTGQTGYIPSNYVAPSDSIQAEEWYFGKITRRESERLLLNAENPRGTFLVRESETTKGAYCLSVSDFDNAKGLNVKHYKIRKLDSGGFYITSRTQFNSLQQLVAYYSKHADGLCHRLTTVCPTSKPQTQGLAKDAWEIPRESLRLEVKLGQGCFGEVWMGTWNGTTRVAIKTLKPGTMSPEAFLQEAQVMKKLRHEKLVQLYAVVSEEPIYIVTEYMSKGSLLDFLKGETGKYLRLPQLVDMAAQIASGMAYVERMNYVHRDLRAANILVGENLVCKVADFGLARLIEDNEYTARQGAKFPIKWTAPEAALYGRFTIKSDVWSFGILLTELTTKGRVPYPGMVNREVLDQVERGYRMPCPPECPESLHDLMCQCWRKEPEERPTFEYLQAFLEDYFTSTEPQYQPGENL

[2] = biological target: Tyrosine-protein kinase Lck (Homo sapiens, UniProt P06239); assay: Affinity for GST-Lck-SH2 domain in ELISA
Tyrosine-protein kinase Lck, sequence (P06239 whole entry, the tested form may be a part): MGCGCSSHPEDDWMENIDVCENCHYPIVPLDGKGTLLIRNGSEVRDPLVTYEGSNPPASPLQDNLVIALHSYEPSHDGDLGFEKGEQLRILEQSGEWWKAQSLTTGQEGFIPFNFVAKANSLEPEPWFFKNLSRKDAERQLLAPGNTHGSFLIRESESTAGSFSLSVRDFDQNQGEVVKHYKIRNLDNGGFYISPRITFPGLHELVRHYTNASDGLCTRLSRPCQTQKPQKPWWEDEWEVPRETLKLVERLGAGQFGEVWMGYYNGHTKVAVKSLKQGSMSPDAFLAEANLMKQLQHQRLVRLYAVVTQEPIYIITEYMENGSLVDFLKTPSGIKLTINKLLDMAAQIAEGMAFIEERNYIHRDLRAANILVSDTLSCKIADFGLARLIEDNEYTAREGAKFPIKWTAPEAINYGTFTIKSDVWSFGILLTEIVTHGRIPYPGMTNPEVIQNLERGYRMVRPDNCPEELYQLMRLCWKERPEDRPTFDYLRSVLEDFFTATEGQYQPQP

[3] = biological target: Tyrosine-protein kinase Fyn (Homo sapiens, UniProt P06241); assay: Affinity for GST-Fyn-SH2 domain in ELISA
Tyrosine-protein kinase Fyn, sequence (P06241 whole entry, the tested form may be a part): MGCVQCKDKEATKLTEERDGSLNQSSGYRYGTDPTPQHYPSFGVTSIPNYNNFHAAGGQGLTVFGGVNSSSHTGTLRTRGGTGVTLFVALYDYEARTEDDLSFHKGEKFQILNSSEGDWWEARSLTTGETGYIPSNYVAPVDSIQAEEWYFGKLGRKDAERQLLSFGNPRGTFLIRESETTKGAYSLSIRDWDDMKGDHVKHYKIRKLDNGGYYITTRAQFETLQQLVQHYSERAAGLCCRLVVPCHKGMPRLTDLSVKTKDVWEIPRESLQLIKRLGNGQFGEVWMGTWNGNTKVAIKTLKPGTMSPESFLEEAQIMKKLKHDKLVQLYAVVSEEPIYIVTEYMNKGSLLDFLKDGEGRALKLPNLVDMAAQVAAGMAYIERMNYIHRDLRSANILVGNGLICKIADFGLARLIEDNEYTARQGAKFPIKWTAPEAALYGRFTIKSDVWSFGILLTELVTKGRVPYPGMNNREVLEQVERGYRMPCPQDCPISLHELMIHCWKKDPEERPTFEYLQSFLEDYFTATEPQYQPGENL

Ac-YAEIE-OH
IC50 [1]: 7 µM
IC50 [2]: 3.8 µM
IC50 [3]: 11 µM

CC[C@H](C)[C@H](NC(=O)[C@H](CCC(=O)O)NC(=O)[C@H](CCC(=O)O)NC(=O)[C@H](Cc1ccc(OP(=O)(O)O)cc1)NC(=O)Cc1cc(=O)oc2cc(O)ccc12)C(=O)N[C@@H](CCC(=O)O)C(=O)O (X1-[pY]EEIE-OH)
IC50 [1]: 0.09 µM
IC50 [2]: 0.081 µM
IC50 [3]: 0.1 µM

Ac-YEEIE-OH
IC50 [1]: > 200 µM
IC50 [2]: > 200 µM
IC50 [3]: > 200 µM

CC(=O)N[C@@H](Cc1ccc(O)c(O)c1)C(=O)N[C@@H](CCC(=O)O)C(=O)N[C@@H](CCC(=O)O)C(=O)N[C@@H](CCC(=O)O)C(=O)O (Ac-[Dopa]EEE-OH)
IC50 [1]: 160 µM
IC50 [2]: 120 µM
IC50 [3]: > 200 µM

CC[C@H](C)[C@H](NC(=O)[C@H](CCC(=O)O)NC(=O)[C@H](CCC(=O)O)NC(=O)[C@H](Cc1ccc(O)c(O)c1)NC(=O)/C=C/c1ccc(O)c(O)c1)C(=O)N[C@@H](CCC(=O)O)C(=O)O (Caffeoyl-[Dopa]EEIE-OH)
IC50 [1]: 55 µM
IC50 [2]: 18 µM
IC50 [3]: 33 µM

CC[C@H](C)[C@H](NC(=O)[C@H](CCC(=O)O)NC(=O)[C@H](CCC(=O)O)NC(=O)[C@H](Cc1ccc(O)c(O)c1)NC(=O)Cc1cc(=O)oc2cc(O)ccc12)C(=O)N[C@@H](CCC(=O)O)C(=O)O (X1-[Dopa]EEIE-OH)
IC50 [1]: 65 µM
IC50 [2]: 58 µM
IC50 [3]: 77 µM

CC[C@H](C)[C@H](NC(=O)[C@H](CCC(=O)O)NC(=O)[C@H](CCC(=O)O)NC(=O)[C@H](Cc1ccc(OP(=O)(O)O)cc1)NC(=O)/C=C/c1ccc(O)c(O)c1)C(=O)N[C@@H](CCC(=O)O)C(=O)O (Caffeoyl-[pY]EEIE-OH)
IC50 [1]: 0.064 µM
IC50 [2]: 0.042 µM
IC50 [3]: 0.084 µM

CC[C@H](C)[C@H](NC(=O)[C@H](CCC(=O)O)NC(=O)[C@H](CCC(=O)O)NC(=O)[C@H](Cc1ccc(O)cc1)NC(=O)/C=C/c1ccc(O)c(O)c1)C(=O)N[C@@H](CCC(=O)O)C(=O)O (Caffeoyl-YEEIE-OH)
IC50 [1]: 54 µM
IC50 [2]: 27 µM
IC50 [3]: 45 µM

CC[C@H](C)[C@H](NC(=O)[C@H](CCC(=O)O)NC(=O)[C@H](CCC(=O)O)NC(=O)[C@H](Cc1ccc(OP(=O)(O)O)cc1)NC(C)=O)C(=O)N[C@@H](CCC(=O)O)C(=O)O (Ac-[pY]EEIE-OH)
IC50 [2]: 1.3 µM
IC50 [3]: 1.1 µM
